# From patent US20230121313A1 (priority 2019, published 2023)
# Values joined by “and” are separate entries in the source; they are usually repeats but may differ in a detail not shown here. Equal values may be shown once. “Also recorded” adds a separate entry of the source. Where a name gives a salt, the structure may show the parent alone. Marks after values point to notes of the source that are not given here.
# Assays:
# [1] = test system: female Sprague-Dawley rats; assay: Single dose neurotoxicity study, intranasal esketamine HCl (clinical observations, brain histopathology, toxicokinetics)
# From the text: (§1) For these studies, female specific pathogen free (SPF) Sprague-Dawley rats were used, which were approximately 12 to 14 weeks at start of dosing and weighed between 227 to 293 grams in the single dose study and between 235 to 296 grams in the 14-day repeated dose study. The rats were supplied by Charles River (Sulzfeld, Germany). They were group housed in polysulphone cages with floor area of 3000 cm^2 and Corn Cob (size 12, Eurocob, France) was provided as bedding material. Environmental enrichment existed of a rodent retreat (Bio-Serv, US) and aspen wood blocks (Datesand, UK). […] The animals were fed ad libitum with irradiated R/M-H pelleted maintenance diet from Ssniff (Germany). Hydrogel™ (supplied by Bio-services, Uden, the Netherlands) was provided to the MK-801 dosed rats in the single dose study.
# Esketamine HCl was instilled intranasally at doses of 0 (vehicle), 36, 54 or 72 mg (expressed as esketamine base) to female rats on a single day. The dose levels were obtained by 2, 3 or 4 subsequent intranasal instillations, respectively, into both nostrils at a volume of 50 μL per nostril. At each instillation, the second nostril was dosed immediately after the first nostril. The interval between subsequent instillations into both nostrils was 5 minutes.
# The vehicle control group received 4 subsequent intranasal instillations of the vehicle into both nostrils (50 μL per nostril) with 5-minute intervals.
# The injection volume was 5 mL/kg.
# The vehicle- and the 36 and 54 mg-dosed groups consisted of 24 animals per group, while the 72 mg-dosed and positive control groups involved 30 animals per group. Four satellite animals were added to the esketamine HCl-dosed groups of main study animals for toxicokinetic (TK) purposes. In these animals the plasma exposure to esketamine was measured on the day of dosing at various time points up to and including 24 hours after the first instillation.
# Prior to the perfusion, rats were anesthetized with isoflurane. After injection of 0.1 ml heparin, the blood of the rat was flushed out with a physiological saline solution by intraarterial insertion of a needle in the abdominal aorta. Thereafter the rat was perfused with glutaraldehyde 3% in potassium phosphate 0.09M and 1.4% sucrose. Due to logistic constraints at maximum 30 animals could undergo the whole-body perfusion procedure on a given day. Therefore, a staggered start of treatment was applied to all 5 groups of main study animals. Consequently, subgroups of 4 main study animals of the vehicle- and 36 and 54 mg-dosed groups, and 5 main study animals of the 72 mg-dosed and positive control groups, were dosed on 6 consecutive days, respectively.
# The vehicle control, positive control, and esketamine HCl-dosed animals were sacrificed at either 48 hours (i.e., the first 12 or 15 rats per group) or 96 hours after the dose administration time (i.e., the last 12 or 15 rats per group). The brain tissue of the vehicle control-, positive control- and esketamine HCl-treated rats were processed at the same time and handled in the same way in batches of 4 or 5 animals per group.
# (§2) Furthermore, clinical observations were recorded for the esketamine HCl-dosed rats on the day of dosing at 0 till 5 minutes, 15 and 30 minutes, and at 1, 2, 4, 6 hours post-dose, at the end of the working day and at 24 hours after the last instillation in the single dose study and on the first day of dosing, after one week and towards the end of the dosing period in the repeated dose study. Body weight and body weight gain were measured daily. Food consumption was measured weekly in the repeated dose study.
# (§3) On the day of terminal kill, a complete physical examination was performed on the rats in fasted condition and body weight was recorded. The surviving animals were anaesthetized by inhalation of an isoflurane (IsoFlo® Zoetis, Belgium)/oxygen mixture and killed by exsanguination via the carotid artery.
# [2] = test system: female Sprague-Dawley rats; assay: 14-day repeated dose neurotoxicity study, intranasal esketamine HCl (clinical observations, brain histopathology, toxicokinetics); settings: for Abnormal respiration, incidence / Ataxia, incidence / Chromodacryorrhea, incidence / Decreased general activity, incidence / Decubitus, incidence / Increased general activity, incidence / Salivation (out of normal), incidence / audible respiration, incidence / bradypnoea, incidence: 14 days
# From the text: as §1
# Esketamine HCl was administered into each nostril of female rats at a volume of 50 μl per nostril either once, twice or thrice daily by intranasal instillation for 14 consecutive days at doses of 0 (vehicle), 18, 36 or 54 mg/day. At each instillation, the second nostril was dosed immediately after the first nostril. The interval between subsequent instillations into both nostrils was 5 minutes when dosed 2 or 3 times per day.
# The vehicle control group received 3 subsequent intranasal instillations of the vehicle into both nostrils (50 μL per nostril) with 5-minute intervals for 14 consecutive days.
# The positive control group received a single subcutaneous injection of (+)MK-801 at 48 hours prior to the necropsy of the vehicle control and esketamine HCl-treated animals.
# Each group of main study animals consisted of 12 female rats. Four satellite animals were added to the esketamine HCl-dosed groups of main study animals for TK purposes. The plasma exposure to esketamine was measured in these animals on the first and the last day of dosing at various time points up to and including 24 hours after the first instillation.
# Due to logistic constraints associated with the whole body perfusion procedure of the animals at necropsy, a staggered start was applied to the study. Consequently, all 5 groups of main study animals were divided into three subgroups of 4 animals each. For each of these subgroups treatment started on a different day. The perfusion procedure is the is the same as described for the single dose study.
# All vehicle- and esketamine HCl-treated animals were sacrificed at 48 hours after the last instillation. […] The brain tissue of the vehicle control-, positive control- and esketamine HCl-treated rats were processed at the same time and handled in the same way in batches of 4 animals per group.
# as §2
# as §3, with “artery. […] All terminally killed rats or those killed pre-terminally were perfused with 4% paraformaldehyde in the single dose study and with glutaraldehyde 3% in potassium phosphate buffer 0.09 M with 1.4% sucrose in the repeated dose study.” for “artery.”
# Brain tissue was sampled and processed routinely. The trimmed and embedded tissue was sectioned and stained with hematoxylin-eosin (HE).
# [3] = single dose neurotoxicity study, 72 mg
# [4] = 14-day neurotoxicity study, 54 mg/day
smiles,measurement,setting,value
"CN[C@]1(c2ccccc2Cl)CCCCC1=O [esketamine HCl, (S)-2-(2-chlorophenyl)-2-(methylamino)cyclohexanone hydrochloride]","Duration of severely decreased activity with decubitus, bradypnea, ptosis, catalepsy (anesthesia) after last instillation",[1]; 36 mg,15 to 30 min
same,Duration of ataxia (with increased activity) after recovery from decreased activity,"[1]; 54 mg, hydrochloride",1.5 to 3 h and 1 to 3 h
same,Duration of ataxia (with increased activity) after recovery from decreased activity,[1]; 72 mg,up to 3 hours or longer
same,"Abnormal respiration, incidence",[1]; single dose 36 mg intranasal,22/24***
same,"Ataxia, incidence",[1]; single dose 36 mg intranasal,24/24***
same,"Catalepsy, incidence",[1]; single dose 36 mg intranasal,20/24***
same,"Chromodacryorrhea, incidence",[1]; single dose 36 mg intranasal,0/24
same,"Decreased general activity, incidence",[1]; single dose 36 mg intranasal,23/24***
same,"Decubitus, incidence",[1]; single dose 36 mg intranasal,23/24***
same,"Increased general activity, incidence",[1]; single dose 36 mg intranasal,24/24***
same,"Narrowed palpebral fissure, incidence",[1]; single dose 36 mg intranasal,7/24**
same,"Piloerection, incidence",[1]; single dose 36 mg intranasal,0/24
same,"Salivation (out of normal), incidence",[1]; single dose 36 mg intranasal,23/24***
same,"audible respiration, incidence",[1]; single dose 36 mg intranasal,10/24***
same,"bradypnoea, incidence",[1]; single dose 36 mg intranasal,22/24***
same,"Abnormal respiration, incidence",[1]; single dose 54 mg intranasal,22/24***
same,"Ataxia, incidence",[1]; single dose 54 mg intranasal,24/24***
same,"Catalepsy, incidence",[1]; single dose 54 mg intranasal,23/24***
same,"Chromodacryorrhea, incidence",[1]; single dose 54 mg intranasal,0/24
same,"Decreased general activity, incidence",[1]; single dose 54 mg intranasal,23/24***
same,"Decubitus, incidence",[1]; single dose 54 mg intranasal,23/24***
same,"Increased general activity, incidence",[1]; single dose 54 mg intranasal,24/24***
same,"Narrowed palpebral fissure, incidence",[1]; single dose 54 mg intranasal,10/24***
same,"Piloerection, incidence",[1]; single dose 54 mg intranasal,0/24
same,"Salivation (out of normal), incidence",[1]; single dose 54 mg intranasal,24/24***
same,"audible respiration, incidence",[1]; single dose 54 mg intranasal,3/24
same,"bradypnoea, incidence",[1]; single dose 54 mg intranasal,21/24***
same,"Abnormal respiration, incidence",[1]; single dose 72 mg intranasal,30/30***
same,"Catalepsy, incidence",[1]; single dose 72 mg intranasal,30/30***
same,"Chromodacryorrhea, incidence",[1]; single dose 72 mg intranasal,0/30
same,"Decreased general activity, incidence",[1]; single dose 72 mg intranasal,30/30***
same,"Decubitus, incidence",[1]; single dose 72 mg intranasal,30/30***
same,"Increased general activity, incidence",[1]; single dose 72 mg intranasal,29/30***
same,"Narrowed palpebral fissure, incidence",[1]; single dose 72 mg intranasal,22/30***
same,"Piloerection, incidence",[1]; single dose 72 mg intranasal,0/30
same,"Salivation (out of normal), incidence",[1]; single dose 72 mg intranasal,29/30***
same,"audible respiration, incidence",[1]; single dose 72 mg intranasal,2/30
same,"bradypnoea, incidence",[1]; single dose 72 mg intranasal,30/30***
same,Brain histopathology (neuronal necrosis / Olney lesions in PCG/RSC),"[1]; single dose study, esketamine HCl intranasal up to 72 mg, (+)MK-801 maleate 1 mg/kg sc, 48 and 96 h post-dose, hydrochloride",no morphological evidence of neuronal degeneration; also recorded: histopathological lesions were absent; also recorded: No signs of neuronal necrosis were found; also recorded: no neuropathological lesions were observed
same,Mortality,"[1]; single intranasal dose 72 mg, within 30 minutes after 4 instillations",two main study animals and two satellite TK animals died
same,Mortality,[1]; single intranasal dose up to 54 mg,No test article related mortality
same,"Abnormal respiration, incidence",[2]; 18 mg/day intranasal,2/12
same,"Ataxia, incidence",[2]; 18 mg/day intranasal,12/12***
same,"Chromodacryorrhea, incidence",[2]; 18 mg/day intranasal,0/12
same,"Decreased general activity, incidence",[2]; 18 mg/day intranasal,5/12
same,"Decubitus, incidence",[2]; 18 mg/day intranasal,0/12
same,"Increased general activity, incidence",[2]; 18 mg/day intranasal,12/12***
same,"Salivation (out of normal), incidence",[2]; 18 mg/day intranasal,12/12***
same,"audible respiration, incidence",[2]; 18 mg/day intranasal,2/12
same,"bradypnoea, incidence",[2]; 18 mg/day intranasal,0/12
same,"Abnormal respiration, incidence",[2]; 36 mg/day intranasal,11/12***
same,"Ataxia, incidence",[2]; 36 mg/day intranasal,12/12***
same,"Chromodacryorrhea, incidence",[2]; 36 mg/day intranasal,0/12
same,"Decreased general activity, incidence",[2]; 36 mg/day intranasal,12/12***
same,"Decubitus, incidence",[2]; 36 mg/day intranasal,2/12
same,"Increased general activity, incidence",[2]; 36 mg/day intranasal,12/12***
same,"Salivation (out of normal), incidence",[2]; 36 mg/day intranasal,12/12***
same,"audible respiration, incidence",[2]; 36 mg/day intranasal,6/12**
same,"bradypnoea, incidence",[2]; 36 mg/day intranasal,11/12***
same,"Abnormal respiration, incidence",[2]; 54 mg/day intranasal,12/12***
same,"Ataxia, incidence",[2]; 54 mg/day intranasal,12/12***
same,"Chromodacryorrhea, incidence",[2]; 54 mg/day intranasal,0/12
same,"Decreased general activity, incidence",[2]; 54 mg/day intranasal,12/12***
same,"Decubitus, incidence",[2]; 54 mg/day intranasal,8/12***
same,"Increased general activity, incidence",[2]; 54 mg/day intranasal,12/12***
same,"Salivation (out of normal), incidence",[2]; 54 mg/day intranasal,12/12***
same,"audible respiration, incidence",[2]; 54 mg/day intranasal,6/12**
same,"bradypnoea, incidence",[2]; 54 mg/day intranasal,12/12***
same,Maximum tolerated dose (MTD) upon repeated intranasal administration,[2]; 14-day dose-range finding study (internal study),54 mg/day
same,Brain histopathology (neuronal necrosis / Olney lesions in PCG/RSC),"[2]; 14-day study, esketamine HCl intranasal up to 54 mg/day, (+)MK-801 maleate single 1 mg/kg sc, 48 h after last dose, hydrochloride, 1 mg/kg",absence of neuronal necrosis; also recorded: no histopathological lesions were noted; also recorded: did not; also recorded: No histopathological lesions were found
same,Mortality,[2]; up to 54 mg/day for 14 days,No test article related mortality occurred
"CN[C@]1(c2ccccc2Cl)CCCCC1=O [esketamine, (S)-2-(2-chlorophenyl)-2-(methylamino)cyclohexanone]",AUC-based safety margin compared with the maximum 84 mg clinical dose,[1]; [3],~86 fold
same,Cmax-based safety margin compared with the maximum 84 mg clinical dose,[1]; [3],approximately 60 fold
same,AUC-based safety margin compared with the maximum 84 mg clinical dose,[2]; [4],~11 fold
same,Cmax-based safety margin compared with the maximum 84 mg clinical dose,[2]; [4],approximately 17 fold
